The target in this assay is T1, recombinant human ARG1 (Homo sapiens, UniProt P05089).
T1 sequence (P05089 1-322): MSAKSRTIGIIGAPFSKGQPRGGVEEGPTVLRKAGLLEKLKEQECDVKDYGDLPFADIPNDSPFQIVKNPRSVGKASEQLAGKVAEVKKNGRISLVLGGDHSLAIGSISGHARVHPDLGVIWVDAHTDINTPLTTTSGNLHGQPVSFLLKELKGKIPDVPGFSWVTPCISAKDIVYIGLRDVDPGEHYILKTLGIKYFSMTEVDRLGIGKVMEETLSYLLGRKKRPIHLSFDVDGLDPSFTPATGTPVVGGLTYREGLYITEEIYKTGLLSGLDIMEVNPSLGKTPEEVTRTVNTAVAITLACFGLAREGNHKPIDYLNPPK
The assay is described as follows: Arginase coupled enzymatic assay using recombinant human ARG1. The class given is biochemical. The conditions noted are these: 2 nM ARG1, 0.8 mM L-Arginine, 10 mM sodium phosphate pH 7.4, 37° C.; read-out: Potency: Arginase 1 inhibition IC50. Here is the method:
Measurement of Compound Potency by Arginase Coupled Enzymatic Assay Using Recombinant Human ARG1 and ARG2
Purified recombinant human ARG1 and ARG2 were prepared in 50 mM Bicine, pH 8.5, 100 μM MnCl2, 20% glycerol and 1 mM DTT at a final stock concentration of 14.4 μM and 7.56 μM respectively. 2.5 nM of either ARG1 or ARG2 were incubated with varying concentrations of compounds in 10 mM sodium phosphate, pH 7.4, 0.1 mM MnCl2 and 2.5% DMSO in a total volume of 40 μl in a 384-well microplate (Corning™ #3640) at 37° C. for 1 h. The arginase enzymatic reaction was initiated by addition of 10 μl of 4 mM L-Arginine pre-incubated in 10 mM sodium phosphate, pH 7.4, and 0.1 mM MnCl2 at 37° C. into the enzyme and compound mixture, giving the final reaction conditions: 2 nM of ARG1 or ARG2 and 0.8 mM of L-Arginine in 10 mM sodium phosphate, pH 7.4, 0.1 mM MnCl2 and 2% DMSO with varying concentrations of compounds. Following 2 h incubation at 37° C., the arginase enzymatic reaction was stopped by transfer of 10 μl of reaction into 10 μl of detection mix (204 μM Amino-2-Borono-6-Hexanoic Acid, 0.25 μl Arginase Enzyme mix, 0.25 μl Arginase Developer, 0.25 μl Arginase Converter Enzyme in Arginase Assay Buffer from Arginase Activity Colorimetric Assay Kit, BioVision Inc. #K755-100) in a transparent 384-well microplate (Greiner #781801). The plate was immediately put into a plate reader (Synergy™ Neo2 Multi-Mode Microplate Reader) to monitor absorption at 570 nm at 37° C. Absorption values at 12-20 min were used to calculate compound potency. The value of the DMSO blank (MIN inhibition=100% activity) was used as a negative control. The positive control was established by adding 8 μl of enzyme and DMSO mix into 10 μl of detection mix followed by addition of 2 μl of L-Arginine (MAX inhibition=0% activity). To calculate the percent activity, Equation 1 was used. Abs570nm is the value at a given compound concentration:
A counter-screen was performed to identify any inhibition of the coupling enzymes by the test compounds. 10 μl of 0.26 mM of urea with varying concentrations of compounds in 10 mM sodium phosphate, pH 7.4, 0.1 mM MnCl2 and 2% DMSO were added into 10 μl of detection mix in place of the arginase enzymatic reaction mix. Absorption was monitored at 570 nm as described above. The values of a no substrate blank (without urea; MAX inhibition=0% activity) and a DMSO blank (MIN inhibition=100% activity) were used as positive and negative controls respectively. […] Inactivity in the counter-screen was used to confirm that results accurately reflected IC50 values for ARG1 and ARG2.

pIC50: −log10 of the molar value. Bounds are passed on as bounds.

For the molecule `NCCN1C[C@@H]2C[C@@](N)(C(=O)O)[C@@H](CCCB(O)O)[C@@H]2C1`, the negative-log IC50 (pIC50) was 6.00 to 7.00.

As for `C[C@H](N)C(=O)N1C[C@@H]2C[C@](N)(C(=O)O)[C@H](CCCB(O)O)[C@@H]2C1`, the negative logarithm of the IC50 (pIC50) was 6.00 to 7.00. Then `C[C@H](N)C(=O)N1C[C@@H]2C[C@@](N)(C(=O)O)[C@@H](CCCB(O)O)[C@@H]2C1`, with 6.00 to 7.00.

As to `N[C@]1(C(=O)O)C[C@H]2CN(C(=O)[C@@H]3CCCN3)C[C@H]2[C@H]1CCCB(O)O`, the pIC50 was 6.00 to 7.00. `N[C@@]1(C(=O)O)C[C@H]2CN(C(CO)CCl)C[C@H]2[C@@H]1CCCB(O)O` (some centres unmarked): the pIC50 was over 7.00. Consider `CC1(C)[C@H]2C[C@@H]3OB(CCC[C@H]4[C@@H]5CNC[C@@H]5C[C@@]4(N)C(=O)O)O[C@]3(C)[C@@H]1C2`, for which the pIC50 was 6.00 to 7.00. Then `N[C@@]1(C(=O)O)C[C@H]2CN(C3COC3)C[C@H]2[C@@H]1CCCB(O)O`, with 6.00 to 7.00; and `N[C@@]1(C(=O)O)C[C@H]2CNC[C@H]2[C@@H]1CCCB(O)O`, with over 7.00.

One may read the pIC50 as the negative decadic logarithm of the IC50, by convention in mol/L.
